Patent US20240173241A1, “Multistable Photochromic Pigments For Intradermal Use” (THE REGENTS OF THE UNIVERSITY OF COLORADO, a body corporate, priority 2021, published 2024)

Assay: UV activation of P-type photochromic dye in PMMA matrix in natural sunlight (ΔE*ab vs. time)
Format: physicochemical
Excerpt: FIG. 5 is a set of six graphs (A-F) comparing measured and modeled data for the UV activation of P-type photochromic dyes with and without UV and color filters. The UV-activated color change is quantified by ΔE*ab in CIELAB chromaticity space for measured data, while it is expressed in terms of the relative concentration. [C], of the photoactivated species in the modeled data. (A) ΔE*ab vs. time for a P-type photochromic dye (1,2-Bis(2-methyl-5-phenyl-3-thienyl)-perfluorocyclopentenediarylethene, DAE-0001) embedded in a PMMA matrix in natural sunlight in Boulder, Colorado. The time to 85% complete activation, […], is 67 s. (B) ΔE*ab vs. time for DAE-0001 with 50% UV filter ([…] =142 s). […]
where [C] is the concentration of the photoactivated species (photostationary state), [S] is the concentration of the ground-state species, εS,λ is the molar absorptivity of the ground-state species at wavelength λ, εC,λ is the molar absorptivity of the photoactivated species at wavelength λ, φs is the quantum yield of the cycloreversion or deactivation, φC is the quantum yield of photoactivation, Iλ is the irradiance at wavelength λ, and l is the path length. […] The simulations agree well with measured data of its UV activation in natural sunlight in Boulder, Colorado, as shown in FIG. 5A and FIG. 5B. […]

Cc1sc(-c2ccccc2)cc1C1=C(c2cc(-c3ccccc3)sc2C)C(F)(F)C(F)(F)C1(F)F [DAE-0001, 1,2-Bis(2-methyl-5-phenyl-3-thienyl)-perfluorocyclopentenediarylethene]
time to 85% complete activation (embedded in a PMMA matrix, natural sunlight in Boulder, Colorado, no filter (FIG. 5A)): 67 s
time to 85% complete activation (natural sunlight, with 50% UV filter (FIG. 5B)): 142 s
